The values below are quoted from earlier work in patent US20260157999A1, “[…] OF ALKALOID COMPOUNDS AND […] USES THEREOF” (Sensorium Therapeutics, Inc., priority 2021, published 2026).

The conditions of the data set: described pharmacokinetics, rapid metabolism and excretion.

Take `COc1ccc(C23CCC(=O)CC2N(C)CC3)cc1OC` (stereo not shown) [Mesembrine, 3a-(3,4-dimethoxyphenyl)-octahydro-1-methyl-6H-indol-6-one]: the half-life in plasma entry is “less than 2 hours”.
